One assay concerns the target T1, HiBit-BRM fusion protein (Homo sapiens, UniProt P51531).
T1 construct: expressed in transfected cells
Nature of the assay: HiBiT-BRM cell-based degradation assay (Nano-Glo HiBiT Lytic Detection, 24 h). To be noted: HeLa cells expressing HiBiT-BRM; for DC50: read-out: BRM HiBit Degradation IC50; for BRM HiBit Degradation Maximum measured: top dose 30 μM. The procedure, abridged:
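Residual HiBiT-BRM in a stable HeLa line was measured by Nano-Glo lytic luminescence after 24 h compound exposure (top final dose 30 μM, 3-fold, 10 points, duplicate). Values are % degradation, scaled between DMSO-treated cells and cells given 2 μM of a known BRM/BRG1 degrader.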
(In general: The HiBiT peptide binds its large partner to form an active luciferase.)

In assay [1] the target is T2, HiBit-BRG1 fusion protein (Homo sapiens, UniProt P51532).
T2 construct: expressed in transfected cells
T2 sequence (P51532 whole entry, the tested form may be a part): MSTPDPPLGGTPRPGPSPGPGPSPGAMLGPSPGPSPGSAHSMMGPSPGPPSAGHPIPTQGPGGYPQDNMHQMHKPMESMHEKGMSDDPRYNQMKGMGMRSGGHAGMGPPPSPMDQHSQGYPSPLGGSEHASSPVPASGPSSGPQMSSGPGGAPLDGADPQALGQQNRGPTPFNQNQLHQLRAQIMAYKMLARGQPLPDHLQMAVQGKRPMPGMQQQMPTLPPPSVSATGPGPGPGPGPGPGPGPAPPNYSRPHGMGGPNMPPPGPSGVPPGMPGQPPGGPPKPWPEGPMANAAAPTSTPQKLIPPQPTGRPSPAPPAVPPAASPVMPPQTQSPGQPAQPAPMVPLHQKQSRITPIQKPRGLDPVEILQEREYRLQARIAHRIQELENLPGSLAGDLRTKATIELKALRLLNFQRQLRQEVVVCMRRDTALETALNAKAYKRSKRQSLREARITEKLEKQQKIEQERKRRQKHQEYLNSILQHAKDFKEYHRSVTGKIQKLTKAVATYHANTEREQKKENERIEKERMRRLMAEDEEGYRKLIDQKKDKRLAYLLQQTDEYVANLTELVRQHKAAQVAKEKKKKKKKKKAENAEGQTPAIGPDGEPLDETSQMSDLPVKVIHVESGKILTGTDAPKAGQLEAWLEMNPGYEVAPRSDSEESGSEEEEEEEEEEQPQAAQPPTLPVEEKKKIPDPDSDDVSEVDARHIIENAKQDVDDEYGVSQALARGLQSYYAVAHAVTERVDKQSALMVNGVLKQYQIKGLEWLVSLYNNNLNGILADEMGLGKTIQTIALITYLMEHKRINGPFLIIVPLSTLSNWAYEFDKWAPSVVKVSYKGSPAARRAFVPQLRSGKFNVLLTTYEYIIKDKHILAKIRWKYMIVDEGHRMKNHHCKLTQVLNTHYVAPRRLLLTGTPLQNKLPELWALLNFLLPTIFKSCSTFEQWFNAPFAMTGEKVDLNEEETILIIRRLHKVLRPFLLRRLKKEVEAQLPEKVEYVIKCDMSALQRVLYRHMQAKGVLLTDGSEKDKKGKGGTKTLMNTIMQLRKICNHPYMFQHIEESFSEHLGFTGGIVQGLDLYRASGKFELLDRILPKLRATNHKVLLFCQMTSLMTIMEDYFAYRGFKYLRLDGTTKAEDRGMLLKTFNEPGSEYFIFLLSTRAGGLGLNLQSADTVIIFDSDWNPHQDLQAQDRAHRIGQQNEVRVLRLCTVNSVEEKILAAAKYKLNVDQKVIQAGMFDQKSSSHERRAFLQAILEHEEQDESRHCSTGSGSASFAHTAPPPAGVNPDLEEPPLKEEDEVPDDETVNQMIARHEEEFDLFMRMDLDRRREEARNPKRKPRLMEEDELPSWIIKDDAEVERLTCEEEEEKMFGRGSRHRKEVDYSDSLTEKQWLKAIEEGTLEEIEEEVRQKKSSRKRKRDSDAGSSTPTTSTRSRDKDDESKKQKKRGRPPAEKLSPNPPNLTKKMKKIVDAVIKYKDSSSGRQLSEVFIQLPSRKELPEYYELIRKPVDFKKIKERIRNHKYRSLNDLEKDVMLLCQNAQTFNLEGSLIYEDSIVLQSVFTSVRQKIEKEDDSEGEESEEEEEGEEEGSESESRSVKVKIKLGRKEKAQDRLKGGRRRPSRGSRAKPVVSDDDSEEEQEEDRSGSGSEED
Nature of the assay: HiBiT-BRG1 cell-based degradation assay (Nano-Glo HiBiT Lytic Detection, 24 h). The note with it: HeLa cells expressing HiBit-BRG1 and LgBit; for DC50: read-out: BRG1 HiBit Degradation IC50; for Dmax: HeLa, top dose 30 μM, read-out: BRG1 HiBit Degradation Maximum measured. The procedure, abridged: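 Degradation is scaled from DMSO-treated cells (0%) to cells given 2 μM of a known BRM/BRG1 degrader (100%). HeLa cells stably carrying HiBiT-BRG1 plus LgBiT (5000/well) were lysed with Nano-Glo HiBiT detection reagent, shaken 10 min at RT, and luminescence read.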

T1 sequence (P51531 whole entry, the tested form may be a part): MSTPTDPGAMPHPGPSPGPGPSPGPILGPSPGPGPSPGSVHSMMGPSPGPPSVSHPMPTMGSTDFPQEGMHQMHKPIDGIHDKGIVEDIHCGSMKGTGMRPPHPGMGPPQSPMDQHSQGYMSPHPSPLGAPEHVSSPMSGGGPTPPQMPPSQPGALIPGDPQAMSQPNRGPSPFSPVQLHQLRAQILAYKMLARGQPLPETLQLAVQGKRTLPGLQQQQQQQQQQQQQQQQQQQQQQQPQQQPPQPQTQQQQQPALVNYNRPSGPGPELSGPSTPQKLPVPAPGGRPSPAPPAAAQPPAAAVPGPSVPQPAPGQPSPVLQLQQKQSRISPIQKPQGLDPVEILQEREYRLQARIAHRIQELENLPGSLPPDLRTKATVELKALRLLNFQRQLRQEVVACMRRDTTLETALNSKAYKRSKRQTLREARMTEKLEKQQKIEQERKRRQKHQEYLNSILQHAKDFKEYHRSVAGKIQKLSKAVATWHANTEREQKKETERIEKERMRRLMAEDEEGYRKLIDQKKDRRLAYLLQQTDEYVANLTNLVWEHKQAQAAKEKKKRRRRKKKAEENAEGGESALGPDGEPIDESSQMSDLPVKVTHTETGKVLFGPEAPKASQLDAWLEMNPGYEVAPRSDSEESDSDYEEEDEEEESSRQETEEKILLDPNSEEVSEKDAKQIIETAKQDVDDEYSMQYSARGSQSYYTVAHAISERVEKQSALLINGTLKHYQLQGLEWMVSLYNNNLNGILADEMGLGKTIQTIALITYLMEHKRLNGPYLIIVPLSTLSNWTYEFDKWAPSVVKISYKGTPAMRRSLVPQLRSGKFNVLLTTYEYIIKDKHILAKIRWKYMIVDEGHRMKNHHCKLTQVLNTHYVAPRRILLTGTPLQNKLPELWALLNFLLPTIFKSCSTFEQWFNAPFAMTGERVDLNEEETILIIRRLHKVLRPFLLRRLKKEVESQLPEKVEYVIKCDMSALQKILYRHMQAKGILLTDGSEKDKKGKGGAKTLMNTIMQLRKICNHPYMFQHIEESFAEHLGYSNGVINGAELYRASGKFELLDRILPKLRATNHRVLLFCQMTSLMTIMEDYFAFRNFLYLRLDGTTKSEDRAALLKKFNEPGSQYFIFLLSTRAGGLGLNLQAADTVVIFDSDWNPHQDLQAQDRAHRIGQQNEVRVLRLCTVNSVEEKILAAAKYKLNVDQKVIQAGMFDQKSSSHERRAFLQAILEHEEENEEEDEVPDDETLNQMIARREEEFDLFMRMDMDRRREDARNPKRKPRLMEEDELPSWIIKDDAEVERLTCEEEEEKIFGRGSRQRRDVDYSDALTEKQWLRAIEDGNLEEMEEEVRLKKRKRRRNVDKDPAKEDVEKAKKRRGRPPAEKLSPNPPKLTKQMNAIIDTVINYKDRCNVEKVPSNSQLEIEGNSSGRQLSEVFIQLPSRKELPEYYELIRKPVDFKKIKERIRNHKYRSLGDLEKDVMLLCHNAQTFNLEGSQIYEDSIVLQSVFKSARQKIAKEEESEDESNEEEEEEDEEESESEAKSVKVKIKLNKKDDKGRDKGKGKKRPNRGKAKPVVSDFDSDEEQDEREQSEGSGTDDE

On to `CS(=O)(=O)n1ccc(C(=O)NCC(=O)Nc2nc(-c3cccc(-c4ccnc(C5(C(=O)NCCOCCOCCNC(=O)COc6cccc7c6C(=O)N(C6CCC(=O)NC6=O)C7=O)CC5)c4)c3)cs2)c1` (stereo not shown) [Compound 128], for which, at HiBit-BRM fusion protein, the DC50 is more than 10000 nM and the “BRM HiBit Degradation Maximum measured” value is listed as “C (‘C’ = Maximum degradation <50%)”. In assay [1], the DC50 was more than 10000 nM and the Dmax is less than 50%.

Turning to `CN1C(=O)CCC(N2C(=O)c3cccc(OCC(=O)NCCCCCCCCNC(=O)C4(c5cc(-c6cccc(-c7csc(NC(=O)CNC(=O)c8ccn(S(C)(=O)=O)c8)n7)c6)ccn5)CC4)c3C2=O)C1=O` (stereo not shown) [Compound 129, N-[2-[[4-[3-[2-[1-[8-[[2-[2-(1-methyl-2,6-dioxo-3-piperidyl)-1,3-dioxo-isoindolin-4-yl]oxyacetyl]amino]octylcarbamoyl]cyclopropyl]-4-pyridyl]phenyl]thiazol-2-yl]amino]-2-oxo-ethyl]-1-methylsulfonyl-pyrrole-3-carboxamide], at HiBit-BRM fusion protein, the DC50 is more than 10000 nM and the “BRM HiBit Degradation Maximum measured” value is “C (‘C’ = Maximum degradation <50%)”. For the same molecule, in assay [1], the DC50 was more than 10000 nM and the Dmax was less than 50%.

`Cc1cc(C(=O)NCC(=O)Nc2nc(-c3cccc(-c4ccnc(N(C)CC(=O)N5CCC(C6CCN(C(=O)COc7cccc8c7C(=O)N(C7CCC(=O)NC7=O)C8=O)CC6)CC5)c4)c3)cs2)cn1S(C)(=O)=O` (stereo not shown) [Compound 130, N-[2-[[4-[3-[2-[[2-[4-[1-[2-[2-(2,6-dioxo-3-piperidyl)-1,3-dioxo-isoindolin-4-yl]oxyacetyl]-4-piperidyl]-1-piperidyl]-2-oxo-ethyl]-methyl-amino]-4-pyridyl]phenyl]thiazol-2-yl]amino]-2-oxo-ethyl]-5-methyl-1-methylsulfonyl-pyrrole-3-carboxamide]: on HiBit-BRM fusion protein, the DC50 is more than 10000 nM and the “BRM HiBit Degradation Maximum measured” value is “C (‘C’ = Maximum degradation <50%)”. Moreover, in assay [1], the DC50 was more than 10000 nM and the Dmax is less than 50%.

As for `Cc1cc(C(=O)NCC(=O)Nc2nc(-c3cccc(-c4ccnc(N(C)CC(=O)NCCCCCCCCNC(=O)COc5cccc6c5C(=O)N(C5CCC(=O)NC5=O)C6=O)c4)c3)cs2)cn1S(C)(=O)=O` (stereo not shown) [Compound 131, N-(2-((4-(3-(2-((2-((8-(2-((2-(2,6-dioxopiperidin-3-yl)-1,3-dioxoisoindolin-4-yl)oxy)acetamido)octyl)amino)-2-oxoethyl)(methyl)amino)pyridin-4-yl)phenyl)thiazol-2-yl)amino)-2-oxoethyl)-5-methyl-1-(methylsulfonyl)-1H-pyrrole-3-carboxamide], at HiBit-BRM fusion protein, the DC50 is more than 10000 nM and the “BRM HiBit Degradation Maximum measured” value is “C (‘C’ = Maximum degradation <50%)”. In assay [1], the DC50 is more than 10000 nM and the Dmax is less than 50%.

Consider `CS(=O)(=O)n1ccc(C(=O)NCC(=O)Nc2nc(-c3cccc(-c4ccnc(C5(C(=O)N6CCN(c7ccc8c(c7)C(=O)N(C7CCC(=O)NC7=O)C8=O)CC6)CC5)c4)c3)cs2)c1` (stereo not shown) [Compound 132, N-(4-[3-[2-(1-[4-[2-(2,6-dioxopiperidin-3-yl)-1,3-dioxoisoindol-5-yl]piperazine-1-carbonyl]cyclopropyl)pyridin-4-yl]phenyl]-1,3-thiazol-2-yl)-2-[(1-methanesulfonylpyrrol-3-yl)formamido]acetamide], for which, on HiBit-BRM fusion protein, the DC50 is more than 10000 nM and the “BRM HiBit Degradation Maximum measured” value is “C (‘C’ = Maximum degradation <50%)”. Moreover, in assay [1], the DC50 is more than 10000 nM and the Dmax was less than 50%.

With `CS(=O)(=O)n1ccc(C(=O)NCC(=O)Nc2nc(-c3cccc(-c4ccnc(C5(C(=O)NCCNc6ccc7c(c6)C(=O)N(C6CCC(=O)NC6=O)C7=O)CC5)c4)c3)cs2)c1` (stereo not shown) [Compound 133, N-(2-[[2-(2,6-dioxopiperidin-3-yl)-1,3-dioxoisoindol-5-yl]amino]ethyl)-1-[4-[3-(2-[2-[(1-methanesulfonylpyrrol-3-yl)formamido]acetamido]-1,3-thiazol-4-yl)phenyl]pyridin-2-yl]cyclopropane-1-carboxamide], on HiBit-BRM fusion protein, the DC50 lay within 100 to 1000 nM; the “BRM HiBit Degradation Maximum measured” value is “B (‘B’ = Maximum degradation ≥50% and ≤75%)”. Moreover, in assay [1], the DC50 was less than 100 nM and the Dmax is more than 75%.

With `CS(=O)(=O)n1ccc(C(=O)NCC(=O)Nc2nc(-c3cccc(-c4ccnc(C5(C(=O)N6CCN(CC7CCN(c8ccc9c(c8)C(=O)N(C8CCC(=O)NC8=O)C9=O)CC7)CC6)CC5)c4)c3)cs2)c1` (stereo not shown) [Compound 134, N-[4-[3-(2-[1-[4-([1-[2-(2,6-dioxopiperidin-3-yl)-1,3-dioxoisoindol-5-yl]piperidin-4-yl]methyl)piperazine-1-carbonyl]cyclopropyl]pyridin-4-yl)phenyl]-1,3-thiazol-2-yl]-2-[(1-methanesulfonylpyrrol-3-yl)formamido]acetamide], at HiBit-BRM fusion protein, the DC50 is 100 to 1000 nM and the “BRM HiBit Degradation Maximum measured” value is “A (‘A’ = Maximum degradation >75%)”. In assay [1], the DC50 is less than 100 nM and the Dmax was more than 75%.

On to `CS(=O)(=O)n1ccc(C(=O)NCC(=O)Nc2nc(-c3cccc(-c4ccnc(C5(C(=O)N6CCN(CCCOc7ccc8c(c7)C(=O)N(C7CCC(=O)NC7=O)C8=O)CC6)CC5)c4)c3)cs2)c1` (stereo not shown) [Compound 135, N-[4-[3-(2-[1-[4-(3-[[2-(2,6-dioxopiperidin-3-yl)-1,3-dioxoisoindol-5-yl]oxy]propyl)piperazine-1-carbonyl]cyclopropyl]pyridin-4-yl)phenyl]-1,3-thiazol-2-yl]-2-[(1-methanesulfonylpyrrol-3-yl)formamido]acetamide], for which, at HiBit-BRM fusion protein, the DC50 lay within 100 to 1000 nM; the “BRM HiBit Degradation Maximum measured” value was “B (‘B’ = Maximum degradation ≥50% and ≤75%)”. Further, in assay [1], the DC50 lay in the range of 100 to 1000 nM and the Dmax is more than 75%.

In the case of `CS(=O)(=O)n1ccc(C(=O)NCC(=O)Nc2nc(-c3cccc(-c4ccnc(C5(C(=O)N6CC(CCOc7cccc8c7C(=O)N(C7CCC(=O)NC7=O)C8=O)C6)CC5)c4)c3)cs2)c1` (stereo not shown) [Compound 136, N-[4-[3-(2-[1-[3-(2-[[2-(2,6-dioxopiperidin-3-yl)-1,3-dioxoisoindol-4-yl]oxy]ethyl)azetidine-1-carbonyl]cyclopropyl]pyridin-4-yl)phenyl]-1,3-thiazol-2-yl]-2-[(1-methanesulfonylpyrrol-3-yl)formamido]acetamide], on HiBit-BRM fusion protein, the DC50 was more than 10000 nM and the “BRM HiBit Degradation Maximum measured” value is given as “C (‘C’ = Maximum degradation <50%)”. In assay [1], the DC50 is more than 10000 nM and the Dmax was less than 50%.

For the molecule `Cc1ncsc1-c1ccc(CNC(=O)[C@@H]2C[C@@H](O)CN2C(=O)[C@@H](NC(=O)C2CC3(CC(C(=O)NCc4cccc(-c5cccc(-c6csc(NC(=O)CNC(=O)c7ccn(S(C)(=O)=O)c7)n6)c5)c4)C3)C2)C(C)(C)C)cc1` (stereo partly drawn) [Compound 137, N2-[(2S)-1-[(2S,4R)-4-hydroxy-2-([[4-(4-methyl-1,3-thiazol-5-yl)phenyl]methyl]carbamoyl)pyrrolidin-1-yl]-3,3-dimethyl-1-oxobutan-2-yl]-N6-[[3′-(2-[2-[(1-methanesulfonylpyrrol-3-yl)formamido]acetamido]-1,3-thiazol-4-yl)-[1,1′-biphenyl]-3-yl]methyl]spiro[3.3]heptane-2,6-dicarboxamide], on HiBit-BRM fusion protein, the DC50 was more than 10000 nM and the “BRM HiBit Degradation Maximum measured” value is listed as “C (‘C’ = Maximum degradation <50%)”. Also, in assay [1], the DC50 is more than 10000 nM and the Dmax is less than 50%.

For `Cc1ncsc1-c1ccc(CNC(=O)[C@@H]2C[C@@H](O)CN2C(=O)[C@@H](NC(=O)CN2CCC(C(=O)NCc3cccc(-c4cccc(-c5csc(NC(=O)CNC(=O)c6ccn(S(C)(=O)=O)c6)n5)c4)c3)CC2)C(C)(C)C)cc1` [Compound 138, 1-([[(2S)-1-[(2S,4R)-4-hydroxy-2-([[4-(4-methyl-1,3-thiazol-5-yl)phenyl]methyl]carbamoyl)pyrrolidin-1-yl]-3,3-dimethyl-1-oxobutan-2-yl]carbamoyl]methyl)-N-[[3-(2-[2-[(1-methanesulfonylpyrrol-3-yl)formamido]acetamido]-1,3-thiazol-4-yl)-[1,1-biphenyl]-3-yl]methyl]piperidine-4-carboxamide], on HiBit-BRM fusion protein, the DC50 was 1000 to 10000 nM; the “BRM HiBit Degradation Maximum measured” value was “B (‘B’ = Maximum degradation ≥50% and ≤75%)”. Besides, in assay [1], the DC50 fell in the range of 1000 to 10000 nM and the Dmax fell in the range of 50 to 75%.

For the molecule `CS(=O)(=O)n1ccc(C(=O)NCC(=O)Nc2nc(-c3cccc(-c4ccnc(C5(C(=O)NC6CCN(CCCCOc7ccc8c(c7)C(=O)N(C7CCC(=O)NC7=O)C8=O)CC6)CC5)c4)c3)cs2)c1` (stereo not shown) [Compound 140, N-[1-(4-[[2-(2,6-dioxopiperidin-3-yl)-1,3-dioxoisoindol-5-yl]oxy]butyl)piperidin-4-yl]-1-[4-[3-(2-[2-[(1-methanesulfonylpyrrol-3-yl)formamido]acetamido]-1,3-thiazol-4-yl)phenyl]pyridin-2-yl]cyclopropane-1-carboxamide], on HiBit-BRM fusion protein, the DC50 lay within 100 to 1000 nM and the “BRM HiBit Degradation Maximum measured” value is “A (‘A’ = Maximum degradation >75%)”. Moreover, in assay [1], the DC50 was 100 to 1000 nM and the Dmax is more than 75%.

Regarding `CS(=O)(=O)n1ccc(C(=O)NCC(=O)Nc2nc(-c3cccc(-c4ccnc(C5(C(=O)N6CC(Oc7ccc8c(c7)C(=O)N(C7CCC(=O)NC7=O)C8=O)C6)CC5)c4)c3)cs2)c1` (stereo not shown) [Compound 141, N-[4-(3-[2-[1-(3-[[2-(2,6-dioxopiperidin-3-yl)-1,3-dioxoisoindol-5-yl]oxy]azetidine-1-carbonyl)cyclopropyl]pyridin-4-yl]phenyl)-1,3-thiazol-2-yl]-2-[(1-methanesulfonylpyrrol-3-yl)formamido]acetamide], on HiBit-BRM fusion protein, the DC50 lay within 100 to 1000 nM; the “BRM HiBit Degradation Maximum measured” value is “B (‘B’ = Maximum degradation ≥50% and ≤75%)”. For the same molecule, in assay [1], the DC50 is more than 10000 nM and the Dmax is less than 50%.

The values are drawn from patent publication US12662479B2 (Foghorn Therapeutics Inc., priority 2020, dated 2026).
